Assay results: PubChem BioAssay AID850 (SRMLSC, 2007)
Calls of active or inactive are those of the source. No rule for the calls is given here.

Legend:
[1] = system: Saccharomyces cerevisiae growth inhibition, permissive control; experiment: yeast lifespan-shortening chemical project counter-assay, dose-response inhibition of growth under permissive conditions (AID 850);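 also: growth read as optical density after one day of incubation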
[2] = as above; settings: Saccharomyces cerevisiae growth inhibition, permissive control, measured here: maximum growth inhibition, stronger effect = higher value

SMILES	IC50 [1]	inhibition ([2]; at 50 µM)	also measured
CCN1/C(=C/c2ccc3ccc(C)cc3[n+]2CC)Sc2ccccc21	21.7 µM	92.9%	
N/C(Cc1ccccc1)=N\OC(=O)c1cccc2ccccc12	8.26 µM	100%	
CCCCNC(=S)NCc1ccc2c(c1)cc(C)n2C	> 100 µM (inactive)		inhibition ([2]; at 0.781 µM): 0.79%
O=C(/C=C/c1ccccc1)c1cc(Br)ccc(=O)c1O	12.2 µM	98.8%	
CC(C)(C)N/N=C/c1cc(Cl)cc([N+](=O)[O-])c1O	16.8 µM	95.7%	
Nc1nsc2ccccc12	35.8 µM	63.5%	
O=C(Nc1cccc(N=Cc2cc(Cl)cc(Br)c2O)c1)c1ccco1	25.8 µM	89.6%	
CN1CCN(C2=Cc3cc(Cl)ccc3Sc3cc(F)ccc32)CC1	20.4 µM	100%	
Cc1ccc(C(NC(=O)C(C)C)c2cc([N+](=O)[O-])c3cccnc3c2O)cc1 (stereo unspecified)	28.8 µM	90.4%	
Cc1cc(C)c2c(=O)n(CC(=O)N3CCC(Cc4ccccc4)CC3)sc2n1	> 100 µM (inactive)		inhibition ([2]; at 0.391 µM): 6.81%
Cn1cccc1Cc1nnc(SCC(=O)Nc2nccs2)n1CCc1ccccc1	> 100 µM (inactive)		inhibition ([2]; at 6.25 µM): 29%
Nc1c(Cl)ncnc1N/N=C/c1ccccn1	8.45 µM	99.2%	
Cc1cc(C(=O)N/N=C/c2cccc([N+](=O)[O-])c2O)n[nH]1	> 100 µM (inactive)		inhibition ([2]; at 6.25 µM): 19.4%
Cc1c(Cl)cccc1N=Cc1ccc([N+](=O)[O-])s1	> 100 µM (inactive)	9.36%	
NNC(=O)c1cccc(COc2ccc3c(c2)CCC3)c1	33.3 µM	71%	
O=c1[nH][nH]cc1C=Nc1ccccc1O	> 100 µM (inactive)		inhibition ([2]; at 1.563 µM): 12.5%
CCN(CC)N=Nc1[nH]nc2nc(C)cc(C)c12	48.6 µM	55.1%	
CC(C)Sc1nc(N)nc(-c2cccs2)c1C#N	> 100 µM (inactive)		inhibition ([2]; at 1.563 µM): 14.6%
c1ccc(-c2csc3nnc(SCc4ccc5c(c4)OCO5)n23)cc1	> 100 µM (inactive)		inhibition ([2]; at 0.781 µM): 9.45%
c1ccc2c(c1)C(=Nn1cnnc1)c1ccccc1-2	> 100 µM (inactive)		inhibition ([2]; at 0.391 µM): 7.85%
CNC(=O)Oc1cccc(-c2cn3cc(OC(=O)NC)ccc3n2)c1	6.45 µM	97.6%	

SMILES	IC50 [1]	inhibition ([2]; at 50 µM)	also measured
O=C1NC(=S)N(c2ccccc2F)C(=O)/C1=C\c1cccs1	13.6 µM	91.4%	
CCn1c(=O)c(C(=O)Nc2nc3ccccc3[nH]2)c(O)c2ccccc21	> 100 µM (inactive)		inhibition ([2]; at 0.781 µM): 24.2%
O=C1CCCC/C1=N\Nc1ccc(OCc2ccccc2)cc1	29.7 µM	72.5%	
O=C(NNC(=S)NC(=O)C12CC3CC(CC(C3)C1)C2)c1ccncc1	13.4 µM	94.8%	
CCCC1COC(Cn2cncn2)(c2ccc(C)cc2)O1 (stereo unspecified)	1.83 µM		inhibition ([2]; at 25 µM): 94.7%
CC(C)(C)c1ccc(NC(=O)COC(=O)c2ccc([N+](=O)[O-])s2)cc1	49.5 µM	56.3%	
O=C(CC(O)(C(F)(F)F)C(F)(F)F)Nc1ccc(Cl)c(Cl)c1	19.2 µM	92.8%	
Cc1csc(NC(=O)Cc2coc3cc(C)c(C(C)C)cc23)n1	> 100 µM (inactive)		inhibition ([2]; at 3.125 µM): 10.1%
O=[N+]([O-])c1cccc(/C=N/n2cnnc2)c1O	21 µM	76.8%	
O=C1OCC(CO)(CO)N=C1NNc1cc(Cl)ccc1Cl	11.4 µM	99.2%	
CCCC1COC(Cn2cncn2)(c2ccc(Cl)cc2Cl)O1 (stereo unspecified)	0.184 µM		inhibition ([2]; at 3.125 µM): 97.3%
c1ccc(-c2nnc(-c3ccccn3)nc2NC2CCCCC2)cc1	12.6 µM	99.6%	
Cc1nn2c3ccccc3nc2c2ccccc12	> 100 µM (inactive)		inhibition ([2]; at 0.195 µM): 15.3%
Cc1[nH]n(-c2ccccc2)c(=O)c1/C=N/Nc1nncc(-c2ccccc2)n1	20.7 µM	98.7%	
COc1cccc(/C=N/Nc2ncc(C(F)(F)F)cc2Cl)c1O	> 100 µM (inactive)	29.3%	
Cc1cccc(N=Nc2ccc(O)c3ncccc23)c1	> 100 µM (inactive)	27.9%	
O=C1c2ccccc2C(=O)N1Cc1ccco1	> 100 µM (inactive)		inhibition ([2]; at 25 µM): 8.88%
COC(=O)Cn1c2ccccc2c2nc(C)sc21	> 100 µM (inactive)		inhibition ([2]; at 6.25 µM): 28.7%
O=C1CC(N2CCN(c3nc4ccccc4s3)CC2)C(=O)N1Cc1cccs1 (stereo unspecified)	> 100 µM (inactive)		inhibition ([2]; at 0.781 µM): 28.5%
C=CCSc1nnc2nc3c(nn12)c1cc(C)ccc1n3CC=C	> 100 µM (inactive)		inhibition ([2]; at 25 µM): 16.6%
CN1CCN(CC(=O)N2CCn3c4c(c5cc(C6CCCCC6)ccc53)CCCC42)CC1 (stereo unspecified)	> 100 µM (inactive)		inhibition ([2]; at 1.563 µM): 6.73%

SMILES	IC50 [1]	inhibition ([2]; at 50 µM)	also measured
Cc1c(C(=O)O)cccc1-c1ccc(/C=N/Nc2ccc(Br)cc2)o1	13.1 µM	95.6%	
CC(C)(C)n1nc(-c2ccc(Cl)cc2)c2c(N)ncnc21	1.1 µM	80.7%	
Cc1ccc(Nc2cc(C)nn2-c2nc(C)cc(=O)[nH]2)cc1	0.708 µM		inhibition ([2]; at 6.25 µM): 96.6%
O=C(Oc1ccc(Cl)c2cccnc12)c1ccco1	12.4 µM	100%	
CCCCc1ccc(NC(=S)Nc2ccc(Nc3ccc(OC)cc3)cc2)cc1	> 100 µM (inactive)	16.8%	
CCCCN(CCCC)C(=S)N/N=C/c1c(C)[nH]n(-c2ccccc2)c1=O	> 100 µM (inactive)		inhibition ([2]; at 0.781 µM): 19.7%
O=c1oc2ccccc2cc1-c1cn2cccnc2n1	> 100 µM (inactive)		inhibition ([2]; at 12.5 µM): 13.2%
O=c1oc2ccccc2c(O)c1/C=C1\C=Nc2ccccc21	5.05 µM	93.2%	
COc1ccc(C(=O)N/N=C/c2sc3ccccc3c2O)cc1	> 100 µM (inactive)		inhibition ([2]; at 0.781 µM): 17%
CN(C)CCNC=C(C(=O)Nc1ccc(Cl)cc1Cl)C(=O)Nc1ccc(Cl)cc1Cl	18.6 µM		inhibition ([2]; at 25 µM): 101%
Cc1ccc(COc2ccc(Br)cc2/C=N/O)cc1	> 100 µM (inactive)		inhibition ([2]; at 0.098 µM): -1.78%
Cc1ccc(C(=O)O)cc1N=Cc1cc(Br)cc(Br)c1O	6.04 µM	97.1%	
Cc1cccc(OCCCCc2c(C)n[nH]c2C)c1C	32 µM	76.5%	
O=C1OCC(CO)(CO)N=C1NNc1ccc(Cl)c(Cl)c1	1.6 µM	98.6%	
CN1CSC(=S)N(C)C1	12.6 µM	97%	
CCOC(=O)C(=NC(C)CC)NNc1ccc(Br)cc1 (stereo unspecified)	4.03 µM	97.4%	
CC(C)CNC(=O)CN(C1CCCCC1)S(C)(=O)=O	> 100 µM (inactive)		inhibition ([2]; at 1.563 µM): 9.04%
COc1ccc(OCCNC2CCCC2)cc1	> 100 µM (inactive)		inhibition ([2]; at 0.195 µM): 7.53%
CN(O)/C=c1/ccc2c(n1)C(=O)C=CC=2	8.03 µM		inhibition ([2]; at 12.5 µM): 98%
Cc1ccc(-c2cc(-c3ccccc3Cl)[nH]n2)c(O)c1	> 100 µM (inactive)		inhibition ([2]; at 0.781 µM): 16.4%
CC(=O)N1CCN(c2ccc(OC[C@H]3CO[C@](Cn4ccnc4)(c4ccc(Cl)cc4Cl)O3)cc2)CC1	4.25 µM	96%	

SMILES	IC50 [1]	inhibition ([2]; at 50 µM)	also measured
O=C(NC1CCCCC1)Sc1ccc(Cl)cc1	> 100 µM (inactive)	24.2%	
O=c1cc(-c2ccccc2)n(S(=O)(=O)c2ccccc2)o1	> 100 µM (inactive)		inhibition ([2]; at 0.195 µM): 2.71%
CCCc1ccc(Oc2c(-c3ccc(O)c(C)c3O)n[nH]c2C)cc1	14.8 µM	93.6%	
CCCc1cc(C(=O)NC2CCCCC2)no1	> 100 µM (inactive)		inhibition ([2]; at 0.391 µM): 10.3%
COc1ccc(CCNC(=O)c2cnn3c(C(F)F)cc(C)nc23)cc1OC	> 100 µM (inactive)		inhibition ([2]; at 3.125 µM): -1.3%
Cc1nc2ccccc2c2c1C(=O)N(C)C2=O	> 100 µM (inactive)		inhibition ([2]; at 12.5 µM): 20.3%
CC(Oc1ccc2ccccc2c1)C(=O)NNC(=S)NC(=O)c1ccco1 (stereo unspecified)	11.3 µM	98.6%	
O=C(ONC1=NCCCCC1)c1ccc(Cl)cc1	7.02 µM	99.8%	
O=C(O)Cc1ccc2sc(-c3ccccc3)nc2c1	> 100 µM (inactive)	26.9%	
CC1=C/C(=N\OS(=O)(=O)c2ccccc2)C(C)=CC1=O	0.614 µM		inhibition ([2]; at 12.5 µM): 100%
Cc1ccc(N/N=C(\C#N)C(N)=S)c(C)c1	> 100 µM (inactive)		inhibition ([2]; at 25 µM): 4.57%
O=c1oc2ccccc2c(N2CCCC2)c1CN1CCCC1	> 100 µM (inactive)		inhibition ([2]; at 12.5 µM): 11.7%
Cc1cc(-c2ccco2)c(C#N)c2nc3ccccc3n12	8.64 µM	77.8%	
COc1ccc(OC)c(-c2c3cc(O)c(=O)cc-3oc3cc(O)c(O)cc23)c1	28.1 µM	63.5%	
COc1ccc(NC(=O)C2CCCN2S(=O)(=O)c2cccc3cccnc23)c(OC)c1 (stereo unspecified)	5.82 µM	102%	
COc1cc(-c2nc3ccc4ccccc4c3c3c2CCC3)ccc1O	> 100 µM (inactive)		inhibition ([2]; at 3.125 µM): 11.9%
Oc1c(I)cc(I)c2cccnc12	17.1 µM	74.8%	
OC(CNCC1CCCO1)Cn1c2ccc(Br)cc2c2cc(Br)ccc21 (stereo unspecified)	41 µM	98.8%	
CC1=NNC(=O)/C1=C\c1cn(-c2ccccc2)nc1-c1cccs1	8.18 µM	98%	
Nc1nc2sc3c(c2c(=O)s1)CCCC3	> 100 µM (inactive)		inhibition ([2]; at 0.195 µM): 24.4%
